Consider 18 compounds from PubChem BioAssay (NCI).

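Where inhibition never reached the appropriate level, the endpoint shown equals the highest concentration tested. Otherwise, values were interpolated linearly from a five-concentration, 48-hour dose response in 96-well plates. GI50 marks 50% less growth. TGI is the concentration that stops growth completely.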

Common to all, as to assay: NCI tumour cell line growth inhibition, 48 h
Assay [1] concerns EKVX NSCLC.
The subject of assay [2] is SW-620 colon.
In assay [3] the test system is COLO 205 colon.
The test system of assay [4] is OVCAR-8 ovarian.
The test system of assay [5] is HCT-116 colon.
The subject of assay [6] is SNB-75 CNS.
Assay [7] deals with MOLT-4 leukemia.
For assay [8], the system named is SK-MEL-2 melanoma.
The test system of assay [9] is OVCAR-4 ovarian.
Assay [10] relates to OVCAR-3 ovarian.

As for `OCC1OC(OC2(CO)OC(CO)C(O)C2O)C(O)C(O)C1O` (stereo not given), the GI50 in [1], in assay [2], in [3], in assay [4], in [5] and in assay [6] was greater than 100 µM throughout. Moreover, the GI50 in assay [7], in assay [8], in assay [9] and in assay [10] was greater than 100 µM throughout. Further, the TGI in [1], in assay [2], in assay [3], in [4], in assay [5] and in assay [6] was greater than 100 µM each time. Moreover, the TGI in [7], in assay [8], in assay [9] and in [10] was greater than 100 µM in each case.

Regarding `Cc1ccc(-n2c3nc(=O)n(C)c(=O)c-3nc3ccccc32)c(C)c1`, the TGI in [1] stood at 21.6 µM; in assay [2], 19.1 µM; in assay [3], 13 µM; in [4], 32.9 µM; in assay [5] it was 24 µM; in assay [6], 26.7 µM. Moreover, the TGI is 36.2 µM in [7], 27.5 µM in [8], 24.6 µM in assay [9] and 6.33 µM in assay [10].

On to `OCCNc1nc2ccccc2c2[nH]c3ccccc3c12`, for which the GI50 in assay [1] was 2.14 µM; in assay [2], 0.325 µM; in assay [3] it was 0.329 µM; in assay [4] it was 0.455 µM; in assay [5] it was 0.278 µM; in [6], 1.88 µM. The GI50 in assay [7] is 0.24 µM; in assay [8] it was 0.907 µM; in assay [9] it was 1.06 µM; in assay [10], 0.516 µM. Further, the TGI in assay [1] is 15.5 µM; in assay [2], 2.26 µM; in assay [3], 1.37 µM; in assay [4] it was 4.7 µM; in assay [5], 1.68 µM; in assay [6], 4.2 µM. Moreover, the TGI in assay [7] was determined as 1.48 µM; in assay [8], 3.29 µM; in assay [9], 4.59 µM; in assay [10], 3.47 µM.

`Nc1nc(Cl)c2ncn(Cc3ccc(C45CC6CC(CC(C6)C4)C5)c(OCc4cc(F)c(F)cc4F)c3)c2n1`: the GI50 is 10.8 µM in [1]; 2.14 µM in [2]; 4.22 µM in assay [3]; 2.94 µM in assay [4]; 1.03 µM in assay [5]; 27.5 µM in assay [6]. Also, the GI50 in assay [7] was 0.837 µM; in assay [8], 5.84 µM; in assay [9] it was 6.08 µM; in assay [10], 2.09 µM. Also, the TGI in assay [1] was 67.1 µM; in assay [2], 20.5 µM; in assay [3], 22 µM; in assay [4] it was 14.2 µM; in assay [5] it was 2.2 µM; in assay [6] it was greater than 100 µM. Besides, the TGI in [7] was 2.71 µM; in assay [8], 20.4 µM; in assay [9], greater than 100 µM; in assay [10], 14.7 µM.

As for `O=C1C=CC2(O)OCC3C=C4O[C@@H]5OC6(CCCCC6)O[C@@H]5C4[C@@H]2[C@@H]13` (stereo not given in full), the TGI in [1] is 78.7 µM; in assay [2] it was 71.4 µM; in assay [3], 30.9 µM; in assay [4] it was 77.2 µM; in assay [5] it was 32.1 µM; in assay [6] it was greater than 100 µM. For the same compound, the TGI in assay [7] was 70.5 µM; in [8], greater than 100 µM; in assay [9], 59.9 µM; in assay [10], 52.2 µM.

Regarding `Cn1cc(-c2ccc3ncc(-c4ccc(CC(=O)Nc5cc(C(C)(C)C)nn5C)cc4)cc3c2)cn1`, the GI50 in assay [1] was 1.88 µM; in [2] it was 1.67 µM; in assay [3], 2.78 µM; in assay [4] it was 0.736 µM; in [5], 0.887 µM; in [6] it was 0.37 µM. The GI50 in assay [7] was 0.706 µM; in assay [8] it was 0.789 µM; in assay [9], 0.687 µM; in assay [10], 1.4 µM. Besides, the TGI was greater than 20 µM in [1]; greater than 20 µM in assay [2]; greater than 20 µM in assay [3]; 7.08 µM in [4]; greater than 20 µM in [5]; greater than 20 µM in [6]. Also, the TGI is 3.25 µM in [7], 7.14 µM in assay [8], 5.03 µM in [9] and greater than 20 µM in assay [10].

Regarding `CC(C)(C)OC(=O)N[C@H]1CC(=O)c2ccccc2N(CC(=O)O)C1=O`, the TGI was greater than 100 µM in [1]; greater than 100 µM in assay [2]; greater than 100 µM in assay [3]; greater than 100 µM in assay [4]; 75 µM in [5]; greater than 100 µM in [6]. Besides, the TGI in [7], in assay [8], in assay [9] and in assay [10] was greater than 100 µM each time.

Take `CC(=O)Nc1cccc(C#Cc2cncnc2Nc2ccc(OCc3cccc(F)c3)c(Cl)c2)c1`: the GI50 in assay [1] was 2.01 µM; in assay [2] it was 17.9 µM; in [3] it was 9.17 µM; in [4] it was 6.35 µM; in assay [5], 9.1 µM; in assay [6], 13.2 µM. For the same compound, the GI50 in assay [7] is 6.82 µM; in [8], 6.43 µM; in assay [9], 7.6 µM; in assay [10], 7.53 µM. Moreover, the TGI was greater than 21.5 µM in assay [1]; greater than 25 µM in [2]; greater than 25 µM in assay [3]; 24.9 µM in assay [4]; greater than 25 µM in assay [5]; greater than 25 µM in [6]. In addition, the TGI in assay [7] is greater than 25 µM; in assay [8], greater than 22.8 µM; in assay [9], greater than 25 µM; in [10] it was greater than 25 µM.

`Nc1nc(-c2ccccc2)c(CC(=O)O)s1`: the TGI in [1], in assay [2], in assay [3], in assay [4], in assay [5] and in [6] was greater than 100 µM throughout. In addition, the TGI in assay [7], in assay [8], in assay [9] and in assay [10] was greater than 100 µM in each case.

Regarding `O=c1[nH]c(=S)[nH]c(O)c1/C=C1\C=Nc2ccccc21`, the GI50 in assay [1] is 7.14 µM; in assay [2] it was 1.83 µM; in assay [3] it was 3.77 µM; in assay [4] it was 3.47 µM; in assay [5] it was 2.49 µM; in assay [6] it was 1.73 µM. The GI50 in assay [7] is 2.51 µM; in assay [8], 19.5 µM; in assay [9], 21.2 µM; in assay [10], 1.44 µM. For the same compound, the TGI in assay [1] was 32.8 µM; in assay [2] it was 3.78 µM; in [3] it was 18.3 µM; in assay [4], greater than 100 µM; in assay [5], 10.1 µM; in assay [6], 5 µM. The TGI in [7] was 8.02 µM; in assay [8], 59 µM; in [9], greater than 100 µM; in [10] it was 3.13 µM.

Take `CCOC(=O)[C@@H](C)C[C@H](Cc1ccccc1)NC(=O)c1csc([C@@H](C[C@H](C(C)C)N(C)C(=O)CNC(=O)[C@H]2CCCCN2C)OC(C)=O)n1`: the GI50 is 1.97 µM in assay [1]; 0.733 µM in [2]; 0.483 µM in assay [3]; 2.84 µM in assay [4]; 0.529 µM in assay [5]; 0.534 µM in assay [6]. In addition, the GI50 was 3.12 µM in assay [7], 0.69 µM in [8], 1.3 µM in assay [9] and 0.334 µM in assay [10]. Moreover, the TGI in [1] is greater than 14.3 µM; in assay [2], greater than 14.3 µM; in [3], 3.64 µM; in assay [4], greater than 14.3 µM; in [5], greater than 14.3 µM; in assay [6], greater than 14.3 µM. Moreover, the TGI in assay [7] is greater than 14.3 µM; in [8], greater than 14.3 µM; in assay [9], greater than 14.3 µM; in [10], 1.33 µM.

As to `O=C([O-])c1ccc([I+]c2ccccc2)cc1`, the TGI in assay [1], in [2], in assay [3], in assay [4], in assay [5] and in assay [6] was greater than 100 µM each time. The TGI in assay [7], in [8], in assay [9] and in [10] was greater than 100 µM each time.

Consider `O=C1C=CC2(CCC23C=CC(=O)O3)O1` (stereo not given), for which the TGI in [1], in [2], in assay [3], in assay [4], in assay [5] and in [6] was greater than 100 µM each time. Further, the TGI in assay [7], in assay [8], in [9] and in [10] was greater than 100 µM in each case.

`O=c1c2ccccc2nc(-c2cccc(Cl)c2)n1NC1OC(CO)C(O)C(O)C1O` (stereo not given): the TGI in assay [1], in assay [2], in [3], in [4], in [5] and in assay [6] was greater than 100 µM each time. The TGI in assay [7], in assay [8], in assay [9] and in assay [10] was greater than 100 µM each time.

For the compound `N#CN1CC[C@H](C(=O)Nc2ncc(-c3ccccc3)s2)C1`, the GI50 in [1] was 1.43 µM; in [2] it was 0.313 µM; in assay [3], 0.195 µM; in [4], 0.45 µM; in assay [5], 0.323 µM; in [6], 0.374 µM. The GI50 was 0.309 µM in [7], 0.274 µM in assay [8], 0.673 µM in assay [9] and 0.346 µM in [10]. Moreover, the TGI in [1] is 3.28 µM; in assay [2] it was 14.4 µM; in assay [3], 0.449 µM; in [4], 6.46 µM; in assay [5], 2.18 µM; in [6], 2.69 µM. Moreover, the TGI was 2.04 µM in assay [7], 0.726 µM in assay [8], 5.59 µM in assay [9] and 1.44 µM in [10].

As for `CCOC(=O)C1C(c2ccc(Br)cc2)N(Cc2ccccc2)C(c2ccc(Br)cc2)C(C(=O)OC)S1(=O)=O` (stereo not given), the TGI in assay [1] is greater than 100 µM; in assay [2] it was greater than 100 µM; in assay [3], greater than 100 µM; in [4] it was 84.6 µM; in assay [5], greater than 100 µM; in assay [6], 57.3 µM. Moreover, the TGI in [7], in [8], in assay [9] and in assay [10] was greater than 100 µM each time.

Consider `Cc1cc(OC2OC(CO)C(O)C(O)C2O)ccc1O` (stereo not given), for which the TGI in [1], in assay [2], in [3], in assay [4], in assay [5] and in [6] was greater than 100 µM each time. Besides, the TGI in assay [7], in assay [8], in assay [9] and in assay [10] was greater than 100 µM each time.

On to `CCc1c(OC(C)=O)c2c(NC3OC(COC(C)=O)C(OC(C)=O)C(OC(C)=O)C3OC(C)=O)nc(SC)nc2oc1=O` (stereo not given), for which the TGI in [1], in assay [2], in assay [3], in assay [4], in [5] and in assay [6] was greater than 100 µM each time. In addition, the TGI in assay [7], in assay [8], in [9] and in [10] was greater than 100 µM each time.
